For test [1], the target named is Delta-type opioid receptor (Mus musculus, UniProt P32300). Put plainly: inhibition of [3H]DADLE binding to delta-opioid receptor of mouse brain homogenates.
For the next test, the target named is Mu-type opioid receptor (Mus musculus, UniProt P42866). The test can be described thus: Inhibition of [3H]DAMGO from mouse brain homogenate Mu opioid receptor.
The target in test [2] is Kappa-type opioid receptor (Mus musculus, UniProt P33534). The test can be described thus: Binding affinity against Kappa opioid receptor using [3H]U-69593 radioligand in mouse brain homogenates. Type of test: tissue-based.
Sequence of Kappa-type opioid receptor (P33534 whole entry): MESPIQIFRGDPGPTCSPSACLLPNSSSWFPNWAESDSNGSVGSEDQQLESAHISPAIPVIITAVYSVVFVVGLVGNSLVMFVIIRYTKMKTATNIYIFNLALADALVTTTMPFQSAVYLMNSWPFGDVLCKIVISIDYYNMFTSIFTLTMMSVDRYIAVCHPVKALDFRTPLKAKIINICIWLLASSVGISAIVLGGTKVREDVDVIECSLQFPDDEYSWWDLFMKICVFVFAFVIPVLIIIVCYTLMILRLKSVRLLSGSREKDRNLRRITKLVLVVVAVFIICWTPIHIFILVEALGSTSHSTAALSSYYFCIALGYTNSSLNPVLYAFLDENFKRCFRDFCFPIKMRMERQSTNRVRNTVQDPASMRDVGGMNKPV

SMILES strings stand for the structures. Where only a bound is given, the exact number is not on record here.

Sequence of Mu-type opioid receptor (P42866 whole entry): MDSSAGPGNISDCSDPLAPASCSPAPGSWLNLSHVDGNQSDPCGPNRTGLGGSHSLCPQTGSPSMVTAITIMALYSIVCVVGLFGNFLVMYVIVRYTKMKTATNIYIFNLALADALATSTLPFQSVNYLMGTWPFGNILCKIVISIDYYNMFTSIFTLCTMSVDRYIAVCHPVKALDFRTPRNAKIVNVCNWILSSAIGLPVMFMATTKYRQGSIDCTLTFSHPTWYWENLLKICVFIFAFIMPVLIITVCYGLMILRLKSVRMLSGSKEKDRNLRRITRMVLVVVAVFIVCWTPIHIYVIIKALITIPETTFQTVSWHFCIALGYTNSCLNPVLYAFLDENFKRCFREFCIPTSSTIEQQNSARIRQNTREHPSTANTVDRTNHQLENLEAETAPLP
Sequence of Delta-type opioid receptor (P32300 whole entry): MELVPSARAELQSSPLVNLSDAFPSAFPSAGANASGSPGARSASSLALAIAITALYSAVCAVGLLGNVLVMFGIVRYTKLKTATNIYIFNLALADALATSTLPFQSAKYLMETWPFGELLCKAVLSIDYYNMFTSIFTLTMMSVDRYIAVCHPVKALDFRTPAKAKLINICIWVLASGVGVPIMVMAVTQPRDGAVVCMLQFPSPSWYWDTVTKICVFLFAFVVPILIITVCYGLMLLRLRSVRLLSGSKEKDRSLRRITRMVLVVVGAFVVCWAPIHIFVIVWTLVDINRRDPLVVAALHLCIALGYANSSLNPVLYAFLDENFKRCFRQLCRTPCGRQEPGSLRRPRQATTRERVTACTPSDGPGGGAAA

In turn, `CCN1CC[C@]2(c3cccc(O)c3)Cc3[nH]c(C(=O)N(CC)CC)c(C)c3C[C@H]2C1` yielded a Ki in test [1] of 0.95 nM.

For the molecule `CCN1CC[C@]2(c3cccc(O)c3)Cc3[nH]c(C(=O)N(C(C)C)C(C)C)c(C)c3C[C@H]2C1`, the values for the inhibitory constant (Ki) (at Mu-type opioid receptor; in test [2]; in test [1]) were 57.9 nM, above 1000 nM and 2.6 nM, respectively.

As to `CCN1CC[C@]2(c3cccc(O)c3)Cc3c([nH]c(C(=S)N(CC)CC)c3C)C[C@H]2C1`, the Ki on Mu-type opioid receptor was determined as 42 nM; in test [2], 449 nM; in test [1], 1.5 nM.

For `CCN1CC[C@]2(c3cccc(O)c3)Cc3[nH]c(C(=O)N(C)C)c(C)c3C[C@H]2C1`, the Ki was 580 nM at Mu-type opioid receptor, above 1000 nM in test [2] and 6.8 nM in test [1].

On to `CCN(CC)C(=O)c1[nH]c2c(c1C)C[C@@]1(c3cccc(O)c3)CCN(C)C[C@@H]1C2`, for which the inhibition constant (Ki) at Mu-type opioid receptor was 89.4 nM; in test [2] it was above 1000 nM; in test [1], 3 nM.

For the molecule `CCOC(=O)c1[nH]c2c(c1C)C[C@@]1(c3cccc(O)c3)CCN(CC)C[C@@H]1C2`, the inhibition constant Ki on Mu-type opioid receptor stood at 141 nM; in test [2] it was 169 nM; in test [1], 2.4 nM.

Consider `CN1CC[C@]2(c3cccc(O)c3)Cc3nc4ccccc4cc3C[C@H]2C1`, for which the inhibition constant (Ki) on Mu-type opioid receptor was determined as 59.6 nM; in test [2] it was 312 nM; in test [1], 0.23 nM.

As to `CCN1CC[C@]2(c3cccc(O)c3)Cc3[nH]c(C(N)=O)c(C)c3C[C@H]2C1`, the Ki on Mu-type opioid receptor turned out to be 139 nM; in test [2] it was 70.4 nM; in test [1] it was 15.1 nM.
